Residue numbers refer to the chain shown, from its start. Names and notes keep the numbering of the source.
How the values were obtained:
C. thiooxydans homolog [1] = test system: T1, C. thiooxydans homolog; assay: HPLC hydrolysis assay, initial velocities, substrate inhibition model fit; type: biochemical, Comamonas thiooxydans; conditions: substrate inhibition constant
T1 construct: gene MHETase homolog; Gly179 at the position of MHETase Ser131
From the text: HPLC hydrolysis assay, initial velocities, substrate inhibition model fit on C. thiooxydans homolog | MHETase and both homologs also display this behavior

C. thiooxydans homolog [2] = test system: T2, C. thiooxydans homolog; conditions: substrate inhibition model
T2 construct: gene MHETase homolog

MHETase [3] = target: T3, MHETase (Pseudideonella sakaiensis, UniProt A0A0K8P8E7); assay: HPLC hydrolysis assay, initial velocities, substrate inhibition model fit; type: biochemical; parameters: gene ISF6_0224; pET21b(+)-based expression in E. coli, purified; residue borders and tags only in SI; catalytic triad Ser225, Asp492, His528; conditions: substrate inhibition constant
T3 sequence (A0A0K8P8E7 18-603 limits assumed): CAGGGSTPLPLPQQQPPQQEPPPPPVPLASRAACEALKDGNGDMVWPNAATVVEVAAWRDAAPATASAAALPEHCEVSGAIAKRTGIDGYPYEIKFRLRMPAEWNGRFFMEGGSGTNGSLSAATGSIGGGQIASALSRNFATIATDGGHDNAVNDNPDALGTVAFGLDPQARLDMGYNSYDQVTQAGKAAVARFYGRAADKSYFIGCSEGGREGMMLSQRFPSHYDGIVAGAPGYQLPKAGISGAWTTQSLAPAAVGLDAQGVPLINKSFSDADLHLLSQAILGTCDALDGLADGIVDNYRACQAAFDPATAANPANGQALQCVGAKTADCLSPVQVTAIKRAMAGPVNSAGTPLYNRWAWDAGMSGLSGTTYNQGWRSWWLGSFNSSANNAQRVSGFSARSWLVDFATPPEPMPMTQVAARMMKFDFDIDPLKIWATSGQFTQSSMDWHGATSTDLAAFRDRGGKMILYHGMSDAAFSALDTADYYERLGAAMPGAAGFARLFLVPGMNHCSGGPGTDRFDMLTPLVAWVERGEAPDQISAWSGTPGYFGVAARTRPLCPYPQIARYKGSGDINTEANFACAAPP
From the text: HPLC hydrolysis assay, initial velocities, substrate inhibition model fit on MHETase | MHETase is also the most susceptible to substrate inhibition with a Kk value of […]

MHETase [4] = target: T3, MHETase; assay: X-ray crystallography, […] Å; type: binding; parameters: gene ISF6_0224; pET21b(+)-based expression in E. coli, purified; residue borders and tags only in SI; catalytic triad Ser225, Asp492, His528; conditions: active site; fully occupied in 6QZ3, partially occupied in 6QZ1
[5] = substrate: O=C(O)c1ccc(C(=O)OCCO)cc1; assay: HPLC hydrolysis assay, initial velocities, simple Michaelis-Menten fit; type: biochemical, Pseudideonella sakaiensis; conditions: simple Michaelis-Menten model
From the text: HPLC hydrolysis assay, initial velocities, simple Michaelis-Menten fit on MHETase | The S131G mutant has a Km value approximately eightfold higher than that of wild-type MHETase

## O=C(O)c1ccc(C(=O)OCCO)cc1 [MHET]
C. thiooxydans homolog [1]
  Kk: 78.80 ± 3.04 µM
C. thiooxydans homolog [2]
  Km: 175 ± 4.75 µM
MHETase [3]
  Kk: 307.30 ± 20.65 µM

## O=C(O)c1ccccc1 [benzoate]
MHETase [4]
  X-ray crystallography, 1.6 Å: one structure with a fully occupied benzoic acid ligand (6QZ3)

B1: MHETase (Pseudideonella sakaiensis; S131G) (protein)
chain: T3 sequence (A0A0K8P8E7 18-603 limits assumed) with S114G
notes: pET21b(+)-based expression in E. coli, purified; residue borders and tags only in SI; catalytic triad Ser225, Asp492, His528
[5]
  Km: 184.10 ± 3.50 µM

Source: PMC7568301, “Characterization and engineering of a two-enzyme system for plastics depolymerization” (Proceedings of the National Academy of Sciences of the …, 2020)
